Experimental findings from ChEMBL document CHEMBL1821652, “QSAR models for predicting enzymatic hydrolysis of new chemical entities in 'soft-drug' design” (Bioorg Med Chem, 2009) are described below.

Bounds are passed on as bounds.

This series can be described thus: Half life in human plasma. The format is ADME, cell-free.
In general, half-life refers to the time needed for the level to fall by half in the phase considered. On to `CCOC(=O)CNC(=O)OCN(c1ccc([N+](=O)[O-])cc1Oc1ccccc1)S(C)(=O)=O`, for which the half-life was determined as 15.9 h. The result for `Cc1cc(C)nc(N(COC(=O)c2ccccc2)S(=O)(=O)c2ccc(N)cc2)n1` reads 0.69 h; that for `CCCCCCCCOC(=O)[C@H](Cc1ccccc1)NC(=O)CN.Cl`, 0.708 h; that for `O=C(OC[C@H]1O[C@@H](n2cnc3c(NC4CCCC4)ncnc32)[C@H](O)[C@@H]1O)C1CCCCC1`, 0.75 h. The result for `CCCN(CCC)S(=O)(=O)c1ccc(C(=O)OCN(CC(=O)OCC)C(=O)c2ccccc2)cc1` reads 0.767 h; that for `CCC1CCN(CC(=O)OCCn2c([N+](=O)[O-])cnc2C)CC1`, 0.775 h. Take `CCOC(=O)c1ccc(/N=N/N(C)C(=O)OCOC(=O)c2ccccc2)cc1`: the half-life is 0.783 h. In the case of `NCCCC[C@H](N)C(=O)O[C@H]1C[C@H](n2cc(F)c(=O)[nH]c2=O)O[C@@H]1CO`, the half-life came to 0.85 h. The result for `N[C@@H](CC(=O)O)C(=O)O[C@H]1C[C@H](n2cc(F)c(=O)[nH]c2=O)O[C@@H]1CO` reads 0.898 h. The result for `CCCN(CCC)Cc1ccc(C(=O)OCCOCn2cnc3c(=O)[nH]c(N)nc32)cc1` reads 0.15 h.

With `Cc1cn([C@H]2C=C[C@@H](COC(=O)CNNC(=O)c3ccncc3)O2)c(=O)[nH]c1=O`, the half-life was found to be 1 h. The result for `Cc1cn([C@H]2C=C[C@@H](COC(=O)CNC(=O)c3ccncn3)O2)c(=O)[nH]c1=O` reads 1 h; that for `Cc1cn(CCOC(=O)CC[C@H](N)C(=O)N(C)CC(=O)O)c(=O)[nH]c1=O`, 1.02 h; that for `CCCCCCCCCCOC(=O)[C@H](Cc1ccccc1)NC(=O)CN.Cl`, 1.02 h. With `CCCC(=O)Oc1c(-c2ccc(O)c(O)c2)oc2cc(O)cc(O)c2c1=O`, the half-life came to 1.05 h. `COc1ccc2cc([C@H](C)C(=O)OCN(C)C(=O)c3ccccc3)ccc2c1`: the half-life turned out to be 1.2 h. For `CC(C)C[C@H]1NC(=O)[C@H](Cc2ccccc2)NC(=O)CNC(=O)[C@@H](C)NC(=O)[C@H](Cc2ccc(O)cc2)NC(=O)/C=C\c2ccccc2OC1=O` the value was 1.2 h; for `CN(CC(=O)O)C(=O)[C@@H](N)CCC(=O)OCCOCn1cnc2c(=O)[nH]c(N)nc21`, 1.21 h.

As for `CN(CC(=O)O)C(=O)[C@@H](N)CCC(=O)OCc1ccccc1`, the half-life worked out at 1.22 h. The result for `CCCCCCCCCCCC(=O)Oc1c(-c2ccc(O)c(O)c2)oc2cc(O)cc(O)c2c1=O` reads 1.22 h. `CCOC(=O)CN(COC(=O)[C@@H](C)c1ccc2cc(OC)ccc2c1)C(=O)c1ccccc1` showed a half-life of 1.3 h.

For the compound `O=C(OCc1ccccc1)[C@H]1O[C@@H](Oc2cc3oc(-c4ccc(O)cc4)cc(=O)c3c(O)c2O)[C@H](O)[C@@H](O)[C@@H]1O`, the half-life was found to be 1.47 h. As for `CCCCOC(=O)[C@@H](N)Cc1ccc(O)c(O)c1`, the half-life was determined as 1.6 h. The result for `C[C@H](NC(=O)[C@H](N)CCC(=O)OCCc1ccccc1)C(=O)O` reads 1.62 h; that for `CC(C)(C)C(=O)OCN(c1ccc([N+](=O)[O-])cc1Oc1ccccc1)S(C)(=O)=O`, 1.7 h; that for `N[C@@H](Cc1ccc(O)c(O)c1)C(=O)OCCCCO`, 1.75 h. For `CCCCCCCCCCCCOC(=O)[C@H](Cc1ccccc1)NC(=O)CN.Cl` the value was 1.87 h; for `C[C@H](NC(=O)[C@H](N)CCC(=O)OCc1ccc(F)cc1)C(=O)O`, 2 h; for `CC(C)C[C@H]1NC(=O)[C@H](Cc2ccccc2)NC(=O)CNC(=O)[C@@H](C)NC(=O)[C@H](Cc2ccc(O)cc2)NC(=O)OCOC1=O`, 2.07 h. For `CCCCC(=O)OCOC(=O)Cc1c(C)n(C(=O)c2ccc(Cl)cc2)c2ccc(OC)cc12` the value was 2.07 h. Consider `C[C@]12CCC(=O)C=C1CC[C@@H]1[C@@H]2[C@@H](O)C[C@@]2(C)[C@H]1CC[C@]2(O)C(=O)OCCl`, for which the half-life was determined as 2.2 h. For `C[C@H](NC(=O)[C@H](N)CCC(=O)OCc1ccccc1)C(=O)O` the value was 2.63 h; for `CCOC(=O)CN(COC(=O)Cc1ccccc1Nc1c(Cl)cccc1Cl)C(=O)c1ccccc1`, 2.7 h; for `CN(CC(=O)O)C(=O)[C@@H](N)CC(=O)OCc1ccccc1`, 3 h.

For `C[C@H](NC(=O)[C@H](N)CC(=O)OCc1ccccc1)C(=O)O`, the half-life was 3.52 h. For `CC(C)OC(=O)[C@@H](N)Cc1ccc(O)c(O)c1` the value was 3.97 h. `Cc1cn([C@H]2C=C[C@@H](COC(=O)CN3CCN(c4cc5c(cc4F)c(=O)c(C(=O)O)cn5C4CC4)CC3)O2)c(=O)[nH]c1=O` yielded a half-life of 4 h.

Consider `Cc1cc(C)nc(N(COC(=O)C(C)(C)C)S(=O)(=O)c2ccc(N)cc2)n1`, for which the half-life worked out at 4.07 h. This half-life and that of the compound before are within 1.5-fold of each other. The result for `C[C@H](NC(=O)[C@H](N)CC(=O)OCc1ccc(F)cc1)C(=O)O` reads 4.33 h; that for `CCOC(=O)[C@H]1O[C@@H](Oc2cc3oc(-c4ccc(O)cc4)cc(=O)c3c(O)c2O)[C@H](O)[C@@H](O)[C@@H]1O`, 4.55 h. For `CCN(CC)CC(=O)N(COC(=O)C(C)(C)C)c1c(C)cccc1C` the value was 4.67 h. For `COC(=O)[C@@H](C)c1ccc2cc(OC)ccc2c1` the value was 5.27 h; for `CCC(=O)O[C@]1(C(=O)OCCl)CC[C@H]2[C@@H]3CCC4=CC(=O)CC[C@]4(C)[C@H]3[C@@H](O)C[C@@]21C`, 5.3 h; for `CC(C)C[C@H](NC(=O)[C@H](Cc1ccccc1)NC(=O)CNC(=O)CN1C(=O)[C@H](Cc2ccc(O)cc2)NC12CCCC2)C(=O)O`, 5.57 h. For `CCCC(CCC)C(=O)OCN(C)C(=O)c1ccccc1`, the half-life was 6.4 h. As for `CC(C)(C)C(=O)Oc1ccc2c3c1O[C@H]1C(=O)CC[C@@]4(O)[C@@H](C2)N(CC2CC2)CC[C@]314`, the half-life came out at 9.37 h. The result for `CC(C)C[C@H](NC(=O)[C@H](Cc1ccccc1)NC(=O)CNC(=O)CN1C(=O)[C@H](Cc2ccc(O)cc2)NC12CCCCC2)C(=O)O` reads 12.2 h. `Cc1ncc([N+](=O)[O-])n1CCOC(=O)c1ccccc1C(=O)OCCn1c([N+](=O)[O-])cnc1C`: the half-life was 12.4 h. The half-life values of the last two compounds are within 1.5-fold of each other. For `COC(=O)O[C@]1(C(=O)OCCl)CC[C@H]2[C@@H]3CCC4=CC(=O)CC[C@]4(C)[C@H]3[C@@H](O)C[C@@]21C` the value was 16 h; for `CC(C)C[C@H](NC(=O)[C@H](Cc1ccccc1)NC(=O)CNC(=O)CN1C(=O)[C@H](Cc2ccc(O)cc2)NC12CCC(C)CC2)C(=O)O` (stereo partly drawn), 18.8 h.

`CCCC(CCC)C(=O)OCN(CC(=O)OCC)C(=O)c1ccccc1` had a half-life of 22 h. For `CSCOC(=O)[C@@]1(O)CC[C@H]2[C@@H]3CCC4=CC(=O)C=C[C@]4(C)[C@H]3[C@@H](O)C[C@@]21C` the value was 35 h. The result for `CSCOC(=O)[C@@]1(O)CC[C@H]2[C@@H]3CCC4=CC(=O)CC[C@]4(C)[C@H]3[C@@H](O)C[C@@]21C` reads 38 h; that for `CCC(CC)C(=O)Oc1ccc2c3c1O[C@H]1C(=O)CC[C@@]4(O)[C@@H](C2)N(CC2CC2)CC[C@]314`, 44.7 h. For `CCOC(=O)CN(C)C(=O)OCN(c1ccc([N+](=O)[O-])cc1Oc1ccccc1)S(C)(=O)=O` the value was 49.2 h; for `COc1ccc2c(c1)c(CC(=O)NCCOCCOCCO)c(C)n2C(=O)c1ccc(Cl)cc1`, 74 h. For the compound `CC(C)(C)OC(=O)Oc1ccc2c3c1O[C@H]1C(=O)CC[C@@]4(O)[C@@H](C2)N(CC2CC2)CC[C@]314`, the half-life is greater than 24 h. For `CCN(CC)C(=O)COC(=O)[C@H](C)c1ccc(CC(C)C)cc1` the value was 0.0167 h; for `C[C@@H](C(=O)OCC(=O)N(C)C)c1ccc(-c2ccccc2)c(F)c1`, 0.0183 h; for `CCN(CC)C(=O)COC(=O)[C@@H](C)c1ccc(CC(C)C)cc1`, 0.0233 h. `CC(C)Cc1ccc([C@@H](C)C(=O)OCC(=O)N(C)C)cc1` displayed a half-life of 0.025 h.

On to `CCN(CC)C(=O)COC(=O)[C@H](C)c1ccc(-c2ccccc2)c(F)c1`, for which the half-life was 0.025 h. The result for `CCN(CC)C(=O)COC(=O)[C@@H](C)c1ccc(-c2ccccc2)c(F)c1` reads 0.0433 h; that for `CC1(C)O[C@@H]2C[C@H]3[C@@H]4C[C@H](F)C5=CC(=O)C=C[C@]5(C)[C@@]4(F)[C@@H](O)C[C@]3(C)[C@]2(S[C@H]2CCOC2=O)O1`, 0.0667 h; that for `CCC[C@@H]1O[C@@H]2C[C@H]3[C@@H]4C[C@H](F)C5=CC(=O)C=C[C@]5(C)[C@@]4(F)[C@@H](O)C[C@]3(C)[C@]2(S[C@H]2CCOC2=O)O1`, 0.0667 h. `CCC[C@@H]1O[C@@H]2C[C@H]3[C@@H]4C[C@H](F)C5=CC(=O)CC[C@]5(C)[C@@]4(F)[C@@H](O)C[C@]3(C)[C@]2(S[C@@H]2CCOC2=O)O1` registered a half-life of 0.0833 h.

`Cc1nccn1CCOC(=O)[C@H](C)c1ccc(CC(C)C)cc1` returned a half-life of 0.0867 h. For `CC(C)Cc1ccc([C@H](C)C(=O)OCC(=O)N(C)C)cc1` the value was 0.117 h; for `C[C@H](C(=O)OCC(=O)N(C)C)c1ccc(-c2ccccc2)c(F)c1`, 0.183 h; for `C[C@@H](C(=O)OCCn1ccnc1)c1ccc(-c2ccccc2)c(F)c1`, 0.3 h.

Regarding `CC(C)Cc1ccc([C@@H](C)C(=O)OCCn2ccnc2)cc1`, the half-life was found to be 0.317 h. This half-life and that of the compound before are within 1.5-fold of each other. The result for `Cc1nccn1CCOC(=O)[C@H](C)c1ccc(-c2ccccc2)c(F)c1` reads 0.633 h; that for `COC(=O)[C@H](Cc1ccc(OC(C)=O)c(OC(C)=O)c1)NC(=O)CCCC[C@@H]1CCSS1`, 0.88 h. `CC(=O)Oc1ccc(CCNC(=O)CCCC[C@@H]2CCSS2)cc1OC(C)=O` showed a half-life of 0.172 h. The compound `CCCSc1ccc2c(c1)nc(NC(=O)OC)n2COC(=O)c1ccc(CN)cc1.Cl.Cl` gave a half-life of 0.929 h. For the compound `CC(C)C[C@H]1NC(=O)[C@H](Cc2ccccc2)NC(=O)CNC(=O)[C@@H](C)NC(=O)[C@H](Cc2ccc(O)cc2)NC(=O)/C=C\c2ccccc2OCOC1=O`, the half-life stood at 4.4 h. This half-life lies about 4.7-fold higher than the previous one. Take `O=C(CCCC[C@@H]1CCSS1)NCCc1ccc(O)c(O)c1`: the half-life was 1.35 h. This half-life lies about 3.3-fold lower than the previous one. With `COC(=O)[C@H](Cc1ccc(O)c(O)c1)NC(=O)CCCC[C@@H]1CCSS1`, the half-life is 1.63 h.
